Earlier results in patent US20230380420A1, “HARD SURFACE DISINFECTING COMPOSITION” (priority 2020, published 2023).

Conditions: alcohols; room temperature

~δp | SMILES
~7.3 MPa^1/2 | CC(C)CCCCCO [isooctyl alcohol]
~7.5 MPa^1/2 | OCc1ccc(Cl)cc1 [4-chlorobenzyl alcohol]
~4.5 MPa^1/2 | CCCCCO [1-pentanol]
~10.0 MPa^1/2 | CCCCCCCCC(C)O (stereo not drawn) [2-decanol]
~6.4 MPa^1/2 | CCCC(C)O (stereo not drawn) [2-pentanol]
~3.3 MPa^1/2 | CCCCCCCCO [octanol]
~5.7 MPa^1/2 | CCCCO [1-butanol]
~6.8 MPa^1/2 | CCCO [1-propanol]
~8.8 MPa^1/2 | CCO [ethanol]
~7.6 MPa^1/2 | OC1C=CCC1 (stereo not drawn) [2-cyclopentenyl alcohol]
~10.0 MPa^1/2 | CCCCCCCCCCO [1-decanol]
~3.3 MPa^1/2 | CCCCC(CC)CO (stereo not drawn) [2-ethyl-hexanol]
~6.1 MPa^1/2 | CC(C)O [2-propanol]
~2.6 MPa^1/2 | CCCCCCCC/C=C\CCCCCCCCO [oleyl alcohol]
~4.3 MPa^1/2 | CCC(CC)CO [2-ethyl-1-butanol]

SMILES | ~δp
OC1CCCCC1 [cyclohexanol] | ~4.1 MPa^1/2
C=CCO [2-propenol] | ~10.8 MPa^1/2
CO [methanol] | ~12.3 MPa^1/2
OCC(Cl)CCl (stereo not drawn) [2,3-dichloropropanol] | ~9.2 MPa^1/2
CC(C)(C)O [t-butyl alcohol] | ~5.1 MPa^1/2

Same assay, conditions: glycol ethers; room temperature

~δp | SMILES
~6.5 MPa^1/2 | CCOCC(C)O (stereo not drawn) [propylene glycol monoethyl ether]
~4.5 MPa^1/2 | CCCCOCC(C)O (stereo not drawn) [propylene glycol monobutyl ether]
~6.3 MPa^1/2 | COCC(C)O (stereo not drawn) [propylene glycol monomethyl ether]
~5.6 MPa^1/2 | CCCOCC(C)O (stereo not drawn) [propylene glycol monopropyl ether]
~5.9 MPa^1/2 | OCCOCc1ccccc1 [ethylene glycol monobenzyl ether]
~9.2 MPa^1/2 | CCOCCOCCO [diethylene glycol monoethyl ether]
~6.1 MPa^1/2 | CC(O)COC(C)C (stereo not drawn) [propylene glycol monoisopropyl ether]
~8.2 MPa^1/2 | CCCOCCO [ethylene glycol monopropyl ether]
~4.7 MPa^1/2 | CC(C)COCC(C)O (stereo not drawn) [propylene glycol monoisobutyl ether]
~7.6 MPa^1/2 | COCCOCCOCCO [triethylene glycol monomethyl ether]
~5.1 MPa^1/2 | CCCCOCCO [ethylene glycol monobutyl ether]
~8.2 MPa^1/2 | CC(C)OCCO [ethylene glycol monoisopropyl ether]
~3.1 MPa^1/2 | CCCCCCCC/C=C\CCCCCCCCOCCOCCOCCO [triethylene glycol monooleyl ether]
~7.0 MPa^1/2 | CCCCOCCOCCO [diethylene glycol mono-n-butyl ether]

SMILES | ~δp
COCCOCCO [diethylene glycol monomethyl ether] | ~7.8 MPa^1/2
OCCOc1ccccc1 [ethylene glycol monophenyl ether] | ~5.7 MPa^1/2
CCOCCO [ethylene glycol monoethyl ether] | ~9.2 MPa^1/2
COCCO [ethylene glycol monomethyl ether] | ~9.2 MPa^1/2

Same assay, conditions: room temperature

SMILES | δp
O [water] | ≈ 16.0 MPa^1/2
